How the values were obtained:
[1] = test system: A172; assay: cells; conditions: Homo sapiens, A 172, 72 h, read-out: IC50, 72 h
Procedure: The effect of selected compounds on glioma cells viability was determined. The cells were plated at 2000 cells/well in 96 well plates. The day after, cells were treated with various concentrations of temozolomide or VMY-TP analogs.
Activity of TP-RGD was assessed in glioma cell cultures, as described in Example 11.

[2] = test system: U87MG Resistant; assay: AlamarBlue cell viability, U87MG TMZ resistant; assay type: cell-based; conditions: Homo sapiens, U-87 MG; 72 hours
Procedure: (§1) Cells were seeded in 96-well plates. The day after, cells were treated with various concentrations of temozolomide or TP3. Cell viability was measured by AlamarBlue™ cell viability reagent after 72 hours, considering the control level of cells to be 100%.

[3] = test system: U251 Resistant; assay: AlamarBlue cell viability, U251 TMZ resistant; assay type: cell-based; conditions: Homo sapiens, U-251; 72 hours
Procedure: as §1

[4] = test system: U87-Luc; assay: Orthotopic U87-Luc human glioblastoma tumor xenograft model; assay type: in vivo, Athymic Nude mice; conditions: 10 mg/kg oral gavage
Procedure: Animal studies were performed in accordance with Translational Drug Development, LLC IACUC-approved protocols. Intracranial tumors were generated by injecting 3×10^5 U87-Luc cells in […] of growth media into the right corpus striatum (1 mm anterior and 2 mm lateral to the bregma, depth of 3 mm) of Athymic Nude (Crl:NU(NCr)-Foxn1nu) mice (Charles River, Hollister, CA). Treatment was initiated 7 days after injection. […] Oral gavage treatments were formulated in 10% PEG300 in PBS. Bioluminescence (Total ROI, photons/s) images were performed under anesthesia once weekly starting on Day 1 (7 days post inoculation of U87-Luc cells) and body weights were recorded twice weekly. […] Upon peri-morbidity or at study end, mice were euthanized, brain tumor was excised from right side of brain, and a wet weight was recorded. If tumor was not grossly identifiable, expected tumor-region of the brain was collected. Tissue was fixed in formalin for 48-72 hours and then stored in 70% Ethanol.
A minimum of 100 μL/mouse of whole blood was collected via submandibular survival bleed on Day 10 and Day 27 from 3 mice per group (selected by TD2) from Groups 1, 2 and 4 for assessment of hematological toxicity. Blood was placed in K2-EDTA microtainer tubes (Becton, Dickinson & Co.; Franklin Lakes, NJ) and mixed thoroughly before CBC analysis at TD2.

[5] = test system: U251; assay: cells; conditions: Homo sapiens, U-251, 72 h, read-out: IC50 U251 cell proliferation (BrdU ELISA)
Procedure: U87 cells were seeded at the density of 2,000 cells/well in 96-well plates and incubated overnight. The day after, cells were treated with various concentrations of Temozolomide or analogs for 72 hours. The BrdU ELISA proliferation assay was performed according to the manufacturer's instructions (Roche, #11647229001). Briefly, 20 μl of diluted BrdU labelling reagent was added to each well, to a final concentration of 10 μM BrdU per well. The cells were then incubated at 37° C. for 24 hours. Following this incubation, the labeling medium was aspirated from each well and 200 μl of Roche FixDenat fixing buffer was added. The plates were then incubated at 25° C. for 30 minutes. The fixing solution was removed, and 100 μl of Anti-BrdU-POD antibody was added to each well and incubated again at 25° C. for 90 minutes. Wells were rinsed three times with 200 μl of PBS, then 100 μl of Roche Substrate solution was added to each well. Following a 25 minute incubation at room temperature, the absorbance of each plate was read at 370 nm (reference wavelength: approx. 492 nm) on a Spectramax® i3x microplate reader.
The effect on U251 cell proliferation after 72 hours of treatment was also assessed using the BrdU ELISA cell proliferation assay as described in Example 11.

[6] = background statement; cited from earlier work
[7] = test system: U87 cells; assay: U87 subcutaneous flank xenograft GBM model; assay type: in vivo, SCID mice; conditions: 20 mg/kg orally, once daily then every other day, 14 days
Procedure: A suspension of U87 cells was prepared in 1×HBSS, pH 7.4 and mixed with an equal volume (1:1) of ice cold Matrigel®. Then, 0.1 mL of the cell suspension containing 5×10^6 cells was injected subcutaneously using a 22-gauge needle into the flank region of SCID mice. Animals were monitored daily during the period between inoculation and study initiation. Treatment was started when the average tumor size reached approximately ˜100 mm^3. The test (TP3) and Reference compound (TMZ) were administered orally at 20 mg/kg at a dose volume of 10 mL/Kg. The exact dose was administered based on individual animal body weight recorded during the study period. The TP3 and TMZ treatments were scheduled for once daily dosing for 14 days. However, the dose frequency had to be reduced from once daily to every other day, due to a 10-14% loss of body weight seen in the treated mice from Day 9 until study completion (FIG. 11D). The control group was administered vehicle alone. The test and reference compounds were formulated in 0.4% (v/v) Tween 80, 2% (v/v) Glycerol and 97.6% (v/v) of 30% (w/v) Captisol (SPECD). Number of mice per treatment cohort=8. Tumor growth was measured twice weekly using a digital Vernier caliper.

| SMILES | IC50 [1] [µM] | IC50 [2] [µM] | IC50 [3] [µM] | effect on body weight ([4]; QD×5×4, compared to control) | day 22 mean BLI value ([4]; QD×5×4, control 2.43E+08) [photon/s] | IC50 [5] [µM] | retention in the cerebral parenchyma [6] [%] | tumor volume [7] | tumor weight [7] |
| --- | --- | --- | --- | --- | --- | --- | --- | --- | --- |
| Cn1nnc2c(C(N)=O)ncn2c1=O [TMZ, temozolomide] | > 100 | > 1000 | 180 | impacted body weight | 1.87E+06 | > 200 | 20 | – | – |
| CCCCCCNC(=O)c1ncn2c(=O)n(C)nnc12 [TP3, N-hexyl-3-methyl-4-oxo-3,4-dihydroimidazo[5,1-d][1,2,3,5]tetrazine-8-carboxamide] | – | 280 | 63 | – | – | – | – | significantly reduced | significantly reduced |
